These are literature values, as cited in patent US20220193200A1, “TANNIC ACID/FE (III) NANOPARTICLES AND METHODS OF DRUG DELIVERY” (The Johns Hopkins University, priority 2019, published 2022).

On to `O=C(OC[C@H]1O[C@@H](OC(=O)c2cc(O)c(O)c(OC(=O)c3cc(O)c(O)c(O)c3)c2)[C@H](OC(=O)c2cc(O)c(O)c(OC(=O)c3cc(O)c(O)c(O)c3)c2)[C@@H](OC(=O)c2cc(O)c(O)c(OC(=O)c3cc(O)c(O)c(O)c3)c2)[C@@H]1OC(=O)c1cc(O)c(O)c(OC(=O)c2cc(O)c(O)c(O)c2)c1)c1cc(O)c(O)c(OC(=O)c2cc(O)c(O)c(O)c2)c1` [tannic acid, Tannic acid], for which the pKa result is listed as “around 6”.
